# US10945433B2, “Method for treating coffee rust, citrus black spot, citrus scab and banana black sigatoka diseases” (Bayer CropScience Aktiengesellschaft, priority 2015, dated 2021)
# How the values were obtained:
# [1] = log P determination by HPLC on reversed-phase column (EEC Directive 79/831 Annex V.A8); format: physicochemical
# Method: In table 1, the log P values were determined in accordance with EEC Directive 79/831 Annex V.A8 by HPLC (High Performance Liquid Chromatography) on a reversed-phase column (C 18), using the method described below:
# Temperature: 40° C.; Mobile phases: 0.1% aqueous formic acid and acetonitrile; linear gradient from 10% acetonitrile to 90% acetonitrile.
# Calibration was carried out using unbranched alkan-2-ones (comprising 3 to 16 carbon atoms) with known log P values (determination of the log P values by the retention times using linear interpolation between two successive alkanones). lambda-max-values were determined using UV-spectra from 200 nm to 400 nm and the peak values of the chromatographic signals.
# Mycosphaerella fijiensis = test: Control of Black Sigatoka on banana crop, field trials; format: in vivo; conditions: for Number healthy Leaves 25DAT13: Trial B, untreated 8.7; for Number healthy Leaves 25DAT13 / Number healthy Leaves 2DAT7: per banana plant at end of trial; for Number healthy Leaves 2DAT7: Trial A, untreated 8.5
# Method: Two field trials were implemented in 2013 in Costa Rica and Philippines to evaluate the performance of compounds against Mycosphaerella fijiensis infection on Banana.
# A typical fungicide formulation containing 100 g of compound per liter was applied every 7 to 12 days in consecutive foliar sprays. The trials were carried out according to standard experimental practice with spay adjuvant and mineral oil used in tank mix as it is usual on banana plantation in each country.
# Data are expressed in Number of healthy leaves present at the end of the trial on each Banana plant (more leaves present mean better quantity and quality of harvest).
# Hemileia vastatrix = test: Control of rust (Hemileia vastatrix) on coffee crop, field trials; format: in vivo; conditions: 50 g a.i./ha, coffee leaves, foliar sprays, vs untreated
# Method: Four field trials were implemented in Brazil in 2013 and 2014 to evaluate the performance of compounds against Hemileia vastatrix on Coffee.
# The trials were carried out according to standard experimental practice to protect the canopy from the rust, responsible to defoliation and then yield losses. A typical fungicide formulation containing 100 g of compound per liter was applied in consecutive foliar sprays at 3 occasions every 30 to 50 days in most of the trials. Spray volumes vary from 400 L to 500 L/Ha.
# Assessments were realized on leaves—Data are expressed in % efficacy against rust on leaves compared to untreated plants.
# Guignardia citricarpa = test: Control of black spot (Guignardia citricarpa) on citrus crop, field trials; format: in vivo; conditions: 2000 to 3000 L/Ha
# Text: (§1) Five field trials were implemented in South Africa, Brazil and Japan in 2013 and 2014 to evaluate the performance of compounds against two main diseases having high effect on marketable yield: Elsinoe fawcettii and Guignardia citricarpa are hosted by many citrus species. Both are able to infest fruits and both are quarantine pathogens limiting the exportation outside of the growing countries. The protection against these two pathogens gives a clear advantage for farmers to be present on the export market.
# (§2) The trials were carried out according to standard experimental practice to protect the canopy including fruits in each country. A typical fungicide formulation containing 100 g of compound per liter was applied in consecutive foliar sprays at 5 to 6 occasions every month to control black spot and at 1 to 3 occasions every 14 days to control Scab infections. Spray volumes vary from 2000 L to 3000 L/Ha.
# Elsinoe fawcettii = test: Control of scab (Elsinoe fawcettii) on citrus crop, field trials; format: in vivo; conditions: 3000 L/Ha
# Text: as §1, §2
compound,measurement,setting,value
"CCc1ccc(F)cc1CN(C(=O)c1c(C(F)F)nn(C)c1F)C1CC1 [Compound A6, N-cyclopropyl-3-(difluoromethyl)-N-(2-ethyl-5-fluorobenzyl)-5-fluoro-1-methyl-1H-pyrazole-4-carboxamide]",chromatographic logP,"[1]; reversed-phase C18 HPLC column, HPLC, reversed-phase C 18, 40° C., 0.1% aqueous formic acid and acetonitrile gradient",3.14
"O=C(Nc1ccccc1-c1ccc(Cl)cc1)c1cccnc1Cl [Boscalid, reference compound]",Number healthy Leaves 25DAT13,Mycosphaerella fijiensis; 150 g a.i./ha,13.1
"CC(C)c1ccc(Cl)cc1CN(C(=O)c1c(C(F)F)nn(C)c1F)C1CC1 [Compound A5, N-(5-chloro-2-isopropylbenzyl)-N-cyclopropyl-3-(difluoromethyl)-5-fluoro-1-methyl-1H-pyrazole-4-carboxamide]",% Efficacy (Abbott),Hemileia vastatrix; Trial A,84%
same,% Efficacy (Abbott),Hemileia vastatrix; Trial B,61%
same,% Efficacy (Abbott),Hemileia vastatrix; Trial C,95%
same,% Efficacy (Abbott),Hemileia vastatrix; Trial D,73%
same,% Efficacy (Abbott),"Guignardia citricarpa; Trial A, 10 g a.i./100 L",73%
same,% Efficacy (Abbott),"Guignardia citricarpa; Trial A, 15 g a.i./100 L",70%
same,% Efficacy (Abbott),"Guignardia citricarpa; Trial B, 10 g a.i./100 L",72%
same,% Efficacy (Abbott),"Guignardia citricarpa; Trial B, 15 g a.i./100 L",83%
same,% Efficacy (Abbott),"Guignardia citricarpa; Trial C, 10 g a.i./100 L",91.3%
same,% Efficacy (Abbott),"Guignardia citricarpa; Trial C, 15 g a.i./100 L",93.9%
same,average gain in leaves per plant,"Mycosphaerella fijiensis; 6.25 g ai/ha, banana, Black Sigatoka",about +3 leaves per plant
same,Number healthy Leaves 2DAT7,Mycosphaerella fijiensis; 6.25 g a.i./ha,11.5
same,Number healthy Leaves 2DAT7,Mycosphaerella fijiensis; 12.5 g a.i./ha,12.2
same,Number healthy Leaves 2DAT7,Mycosphaerella fijiensis; 25 g a.i./ha,12
same,Number healthy Leaves 25DAT13,Mycosphaerella fijiensis; 6.25 g a.i./ha,13.4
same,Number healthy Leaves 25DAT13,Mycosphaerella fijiensis; 12.5 g a.i./ha,14.4
same,Number healthy Leaves 25DAT13,Mycosphaerella fijiensis; 25 g a.i./ha,16.2
same,% Efficacy (Abbott),"Elsinoe fawcettii; Trial A, 2.5 g a.i./100 L",96%
same,% Efficacy (Abbott),"Elsinoe fawcettii; Trial A, 5 g a.i./100 L",95%
same,% Efficacy (Abbott),"Elsinoe fawcettii; Trial B, 2.5 g a.i./100 L",92%
same,% Efficacy (Abbott),"Elsinoe fawcettii; Trial B, 5 g a.i./100 L",70%
N-cyclopropyl-3-(difluoromethyl)-5-fluoro-N-(2-isopropylbenzyl)-1-methyl-1H-pyrazole-4-carbothio-amide [Compound A20],logP,[1],4.36
